Counter-ions that a name gives are not always drawn.
Tests used:
NK1 receptor = target: T1, NK1 receptor (Cavia porcellus, UniProt P30547); assay: Antagonism of iodinated tachykinin binding to NK1 receptors (Example A); design: species or system guinea pig
T1 construct: evaluated in guinea pig lungs (Keystone Biologicals, Cleveland, OH); tissue Keystone Biologicals, Cleveland, OH; host or cells: guinea pig lung membranes
Protocol: (§1) One skilled in the art can determine the NK1 receptor and NK2 receptor affinity in vitro as follows. The NK1 receptor affinity of tachykinin antagonists is evaluated in guinea pig lungs (Keystone Biologicals, Cleveland, OH) and affinity for the NK2 receptor is evaluated in HSKR-1 cells (which are mouse 3T3 fibroblasts expressing the human jejunal NK2 receptor). Tissues or cells are homogenized with a Polytron in 15 volumes of 50 mM Tris-HC1 buffer (pH 7.4, 4°C) and centrifuged. The pellet is resuspended in Tris-HCl buffer and is centrifuged; the pellet is washed twice by resuspension. The final pellet is resuspended at a concentration of 40 mg/ml for tissues and 20 mg/ml for cells in incubation buffer and remains at room temperature for at least 15 min prior to use. Receptor binding is initiated by addition of 250 ul membrane preparation in duplicate to 0.1 nM of the following radioligands: ^125I-Bolton Hunter Lys-3 labeled substance P and ^125iodohistidyl-1-neurokinin A; in a final volume of 500 ul of buffer containing 50 mM Tris-HCl (pH 7.4 at room temperature), 0.1% bovine serum albumin, 2 mM mangenese chloride, 40 ug/ml bacitracin, 4 µg/ml leupeptin and chymostatin, 10 µM thiorphan and various doses of the putative tachykinin antagonists. Incubations are performed at room temperature for 90 min (NK1 receptor assays) or 2 hr (NK2 receptor assay); binding is terminated by addition of 50 mM Tris-HCl buffer (pH 7.4, 4°C) and filtration under vacuum through GF/B filters presoaked with 0.1% polyethyleneimine (NK1 receptor assays) or 0.5% bovine serum albumin (NK2 receptor assay). Filter bound radioactivity is quantitated in a gamma counter. Nonspecific binding is defined as binding in the presence of 1 µM substance P or neurokinin A. Specific binding is calculated by subtracting nonspecific binding from total binding. Competition of iodinated SP or NKA binding by test compounds or standards is expressed as a percentage of this maximum binding. IC50 values (concentration required to inhibit 50% of receptor binding) are generated for each of the test compounds by nonlinear regression using an iterative curve fitting program (GraphPAD Inplot, San Diego, CA).
(§2) Tackykinin receptor binding (IC50 values) for representative compounds of the present invention is found in Table 1. The values in Table 1 were determined by the method of present Example A and represent the mean of several experiments, except where noted. […]

[1] = target: T2, human jejunal NK2 receptor (Homo sapiens, UniProt P21452); assay: Antagonism of iodinated tachykinin binding to NK2 receptors (Example A)
T2 construct: expressed in transfected cells; host or cells: HSKR-1 cells (mouse 3T3 fibroblasts)
T2 sequence (P21452 1-398): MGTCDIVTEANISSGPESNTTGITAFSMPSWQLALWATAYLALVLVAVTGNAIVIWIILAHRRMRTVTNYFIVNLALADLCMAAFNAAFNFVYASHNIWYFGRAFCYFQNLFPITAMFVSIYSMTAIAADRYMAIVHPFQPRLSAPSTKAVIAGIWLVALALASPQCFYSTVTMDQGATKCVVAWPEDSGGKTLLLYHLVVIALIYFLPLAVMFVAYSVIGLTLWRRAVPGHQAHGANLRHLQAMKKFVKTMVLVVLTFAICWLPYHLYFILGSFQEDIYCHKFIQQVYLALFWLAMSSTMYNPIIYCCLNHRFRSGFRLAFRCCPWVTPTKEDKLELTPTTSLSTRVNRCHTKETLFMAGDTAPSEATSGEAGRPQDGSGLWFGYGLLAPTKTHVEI
Protocol: as §1, §2

T1 sequence (P30547 whole entry): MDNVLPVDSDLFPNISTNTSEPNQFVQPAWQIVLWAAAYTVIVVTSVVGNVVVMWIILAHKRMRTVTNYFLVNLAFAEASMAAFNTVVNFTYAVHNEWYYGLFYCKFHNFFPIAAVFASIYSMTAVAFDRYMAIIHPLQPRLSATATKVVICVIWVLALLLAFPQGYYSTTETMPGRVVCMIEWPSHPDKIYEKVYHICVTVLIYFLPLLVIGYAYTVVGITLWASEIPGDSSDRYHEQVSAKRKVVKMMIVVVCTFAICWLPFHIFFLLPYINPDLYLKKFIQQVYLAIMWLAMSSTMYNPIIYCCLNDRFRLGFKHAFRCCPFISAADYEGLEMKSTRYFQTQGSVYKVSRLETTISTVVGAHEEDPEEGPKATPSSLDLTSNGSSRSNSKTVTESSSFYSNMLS

CCOC(=O)CN1CCN(C(=O)C2(c3cccnc3)CCN(CC[C@]3(c4ccc(Cl)c(Cl)c4)CCN(C(=O)c4cc(OC)c(OC)c(OC)c4)C3)CC2)CC1 [Example 5.5, (R)-1-(3,4,5-trimethoxybenzoyl)-3-(2-(4-(pyrid-3-yl)-4-((4-carboethoxymethylpiperazin-1-yl)carboxamido)piperidin-1-yl)ethyl)-3-(3,4-dichlorophenyl)pyrrolidine hydrochloric acid salt]
IC50 (NK1 receptor): 6.38 nM
IC50 [1]: 2.5 nM

COc1cc(C(=O)N2CC[C@](CCN3CCC(C(=O)N4CCN(CC(=O)O)CC4)(c4cccnc4)CC3)(c3ccc(Cl)c(Cl)c3)C2)cc(OC)c1OC [Example 6.1, (R)-1-(3,4,5-trimethoxybenzoyl)-3-(2-(4-(pyrid-3-yl)-4-((4-carboxymethylpiperazin-1-yl)carboxamido)piperidin-1-yl)ethyl)-3-(3,4-dichlorophenyl)pyrrolidine hydrochloric acid salt]
IC50 (NK1 receptor): 16.1 nM
IC50 [1]: 14.7 nM

CCOC(=O)CN1CCN(C(=O)C2(c3ccccc3)CCN(CC[C@]3(c4ccc(Cl)c(Cl)c4)CCN(C(=O)c4cc(OC)c(OC)c(OC)c4)C3)CC2)CC1 [Example 8.3.1, (R)-1-(3,4,5-trimethoxvbenzoyl)-3-(2-(4-phenyl-4-((4-carboethoxymethylpiperazin-1-yl)carboxamido)piperidine)ethyl)-3-(3,4-dichlorophenyl)pyrrolidine hydrochloric acid salt]
IC50 (NK1 receptor): 7.7 nM
IC50 [1]: 2.41 nM

COc1cc(C(=O)N2CC[C@](CCN3CCC(C(=O)N4CCN(CC(=O)O)CC4)(c4ccccc4)CC3)(c3ccc(Cl)c(Cl)c3)C2)cc(OC)c1OC [Example 9.2, (R)-1-(3,4,5-trimethoxybenzoyl)-3-(2-(4-phenyl-4-((4-carboxymethylpiperazin-1-yl)carboxamido)piperidine)ethyl)-3-(3,4-dichlororophenyl)pyrrolidine hydrochloric acid salt]
IC50 (NK1 receptor): 5.63 nM
IC50 [1]: 3.13 nM

CCOC(=O)CN1CCN(C(=O)C2(c3ccccc3)CCN(CC[C@]3(c4ccc(Cl)c(Cl)c4)CCN(C(=O)c4cc(-n5cnnn5)ccc4OC)C3)CC2)CC1 [Example 10.4, (R)-1-(2-methoxy-5-(1H-tetrazol-1-yl)benzoyl)-3-(2-(4-phenyl-4-((4-carboethoxymethylpiperazin-1-yl)carboxamido)piperidine)ethyl)-3-(3,4-dichlorophenyl)pyrrolidine hydrochloric acid salt]
IC50 (NK1 receptor): 8.42 nM
IC50 [1]: 51.8 nM

COc1ccc(-n2cnnn2)cc1C(=O)N1CC[C@](CCN2CCC(C(=O)N3CCN(CC(=O)O)CC3)(c3ccccc3)CC2)(c2ccc(Cl)c(Cl)c2)C1 [Example 11.1, (R)-1-(2-methoxy-5-(1H-tetrazol-1-yl)benzoyl)-3-(2-(4-phenyl-4-((4-carboxymethylpiperazin-1-yl)carboxamido)piperidin-1-yl)ethyl)-3-(3,4-dichlorophenyl)pyrrolidine hydrochloric acid salt]
IC50 (NK1 receptor): 10.5 nM
IC50 [1]: 70.7 nM

COc1cc(C(=O)N2CC[C@@](CCN3CCC(C(=O)N4CCN(CC(=O)O)CC4)(c4ccccc4)CC3)(c3ccc(Cl)c(Cl)c3)C2)cc(OC)c1OC [Example 13.3, (S)-1-(3,4,5-trimethoxybenzoyl)-3-(2-(4-phenyl-4-((4-carboxymethylpiperazin-l-yl)carboxamido)piperidine)ethyl)-3-(3,4-dichlorophenyl)pyrrolidine hydrochloric acid salt]
IC50 (NK1 receptor): 5.63 nM
IC50 [1]: 3.13 nM

COC(=O)C1CCCN1C(=O)C1(c2ccccc2)CCN(CCC2(c3ccc(Cl)c(Cl)c3)CCN(C(=O)c3cc(OC)c(OC)c(OC)c3)C2)CC1 [Example 14.1, (R)-1-(3,4,5-Trimethoxybenzoyl)-3-(2-(4-phenyl-4-(((S)-2-carbomethoxypyrrolidin-1-yl)carboxamido)piperidin-1-yl)ethyl)-3-(3,4-dichlorophenyl)pyrrolidine]
IC50 (NK1 receptor): 4.32 nM
IC50 [1]: 4.51 nM

COc1cc(C(=O)N2CC[C@](CCN3CCC(C(=O)N4CCC[C@H]4C(=O)O)(c4ccccc4)CC3)(c3ccc(Cl)c(Cl)c3)C2)cc(OC)c1OC [Example 15.2, (R)-1-(3,4,5-trimethoxybenzonyl)-3-(2-(4-phenyl-4-(((S)-2-carboxypyrrolidin-1-yl)carboxamido)piperidin-1-yl)ethyl)-3-(3,4-dichlorophenyl)pyrrolidine hydrochloric acid salt]
IC50 (NK1 receptor): 14 nM
IC50 [1]: 17.4 nM

CCOC(=O)C1CCN(C(=O)C2(c3ccccc3)CCN(CC[C@]3(c4ccc(Cl)c(Cl)c4)CCN(C(=O)c4cc(OC)c(OC)c(OC)c4)C3)CC2)CC1 [Example 21.1, (R)-1-(3,4,5-Trimethoxybenzoyl)-3-(2-(4-phenyl-4-((4-carboethoxypiperidin-1-yl)carboxamido)piperidin-1-yl)ethyl)-3-(3,4-dichlorophenyl)pyrrolidine]
IC50 (NK1 receptor): 10.4 nM
IC50 [1]: 2.28 nM

COc1cc(C(=O)N2CC[C@](CCN3CCC(C(=O)N4CCC(C(=O)O)CC4)(c4ccccc4)CC3)(c3ccc(Cl)c(Cl)c3)C2)cc(OC)c1OC [Example 22.1, (R)-1-(3,4,5-trimethoxybenzoyl)-3-(2-(4-phenyl-4-((4-carboxypiperidin-1-yl)carboxamido)piperidin-1-yl)ethyl)-3-(3,4-dichlorophenyl)pyrrolidine hydrochloric acid salt]
IC50 (NK1 receptor): 4.05 nM
IC50 [1]: 6.29 nM

CCOC(=O)CN1CCN(C(=O)C2(c3ccccc3)CCN(CCC3(c4ccc(F)c(F)c4)CCN(C(=O)c4cc(OC)c(OC)c(OC)c4)C3)CC2)CC1 (stereo not drawn) [Example 23.8, 1-(3,4,5-trimethoxvbenzoyl)-3-(2-(4-phenyl-4-((4-carboethoxymethylpiperazin-1-yl)carboxamido)piperidin-1-yl)ethyl)-3-(3,4-difluorophenyl)pyrrolidine hydrochloric acid salt]
IC50 (NK1 receptor): 8.41 nM
IC50 [1]: 11.9 nM

CCOC(=O)C1CN(C(=O)C2(c3ccccc3)CCN(CC[C@]3(c4ccc(Cl)c(Cl)c4)CCN(C(=O)c4cc(OC)c(OC)c(OC)c4)C3)CC2)CCO1 (stereo partly drawn) [Example 25.2, (R)-1-(3,4,5-trimethoxybenzoyl)-3-(2-(4-phenyl-4-((2-carboethoxymorpholin-4-yl)carboxamido)piperidin-1-yl)ethyl)-3-(3,4-dichlorophenyl)pyrrolidine fumaric acid salt]
IC50 (NK1 receptor): 14.4 nM
IC50 [1]: 6.5 nM

COc1cc(C(=O)N2CC[C@](CCN3CCC(C(=O)N4CCOC(C(=O)O)C4)(c4ccccc4)CC3)(c3ccc(Cl)c(Cl)c3)C2)cc(OC)c1OC (stereo partly drawn) [Example 26.1, (R)-1-(3,4,5-Trimethoxybenzoyl)-3-(2-(4-phenyl-4-((2-carboxymorpholin-4-yl)carboxamido)piperidin-1-yl)ethyl)-3-(3,4-dichlorophenyl)pyrrolidine]
IC50 (NK1 receptor): 9.9 nM
IC50 [1]: 5.7 nM

CCOC(=O)CCN1CCN(C(=O)C2(c3ccccc3)CCN(CC[C@]3(c4ccc(Cl)c(Cl)c4)CCN(C(=O)c4cc(OC)c(OC)c(OC)c4)C3)CC2)CC1 [Example 27.3, (R)-1-(3,4,5-trimethoxvbenzoyl)-3-(2-(4-phenyl-4-((4-carboethoxyethylpiperazin-1-yl)carboxamido)piperidine)ethyl)-3-(3,4-dichlorophenyl)pyrrolidine hydrochloric acid salt]
IC50 (NK1 receptor): 9.1 nM
IC50 [1]: 2.34 nM

From patent EP0946545B1, “NOVEL CARBOXY SUBSTITUTED CYCLIC CARBOXAMIDE DERIVATIVES” (Aventis Pharmaceuticals Inc., priority 1996, dated 1998)
